Results from patent US12269816B2, “Benzothiophene compound, preparation method therefor and use thereof” (SICHUAN KELUN-BIOTECH BIOPHARMACEUTICAL CO., LTD., priority 2019, dated 2025).

Tests used:
[1] = test system: STING-mediated interferon (IFN) signal reporter gene in THP1-Blue™ ISG cells; experiment: STING-mediated interferon (IFN) signal SEAP reporter gene assay in THP1-Blue ISG cells; format: cell-based, human; conditions: for EC50: Homo sapiens, 16 h incubation, SEAP reporter read at OD620nm; for Emax (OD620nm): highest OD620nm value generated by stimulation of the compound, 16 h; for agonistic effect on the STING-mediated Interferon (IFN) signal pathway: result in words
Description: In this experiment, the activity of the SEAP (secreted embryonic alkaline phosphatase) reporter gene regulated by the IFN regulatory factor (interferon regulatory factor) was detected in the THP1-Blue™ ISG cells (InvivoGen) to evaluate the agonistic effect of the compounds to be tested on the STING-mediated IFN signal pathway at the cellular level.
The THP1-Blue™ ISG cells (InvivoGen) in the logarithmic phase were centrifuged, and resuspended in a cell culture solution to a density of 2×10^6 cells/ml. The cell suspension was inoculated in a 96-well cell culture plate (Corning) at 50 μL/well. The mother liquor of the compound to be tested was gradiently diluted with a cell culture solution to obtain a 2× working concentration diluted solution (control compounds 1 and 2 were diluted at a 3-fold gradient: 200, 66.67, 22.22, 7.41, 2.47, 0.82, 0.27 and 0 μM; compounds 1, 2, 4, 6, 8, and 23 were diluted at a 8-fold gradient: 60, 7.5, 0.94, 0.12, 0.015, 0.0018, 0.00023 and 0 μM; and compounds 3 and 5 were diluted at a 10-fold gradient: 10, 1, 0.1, 0.01, 0.001, 0.0001, 0.00001 and 0 μM). The 2× working concentration diluted solution of the compound was added into a 96-well plate (50 μl of the culture solution containing 2% DMSO was added into the negative control well) at 50 μL/well. The culture plate was then placed in a cell incubator, and incubated for 16 h. After the cell incubation, 10 μL of the cell culture supernatant was transferred to a 96-well plate, and a QUANTI-Blue (InvivoGen) solution was added at 90 μL/well. The cells were incubated at 37° C. for 3 h. The absorbance at 620 nm (OD620nm) was read with a microplate reader.
In the table, EC50 refers to the concentration of a compound when ODM620nm value generated by stimulation of the compound reaches half of Emax; and Emax refers to the highest OD620nm value generated by stimulation of the compound.

[2] = test system: STING pathway cytokine hIFN-β in human THP-1 cells; experiment: ELISA of STING pathway cytokine hIFN-β expression in human THP-1 cells; format: cell-based; conditions: for EC50: hIFN-β expression; for EC50 / Emax: 8 hours, ELISA; for Emax: highest expression of hIFN-β; for agonistic effect on the expression of hIFN-β: result in words
Description: In this experiment, the expression of STING signal pathway cytokine hIFN-β was detected in THP1 cells (Nanjing Cobioer) by the ELISA method, so as to evaluate the agonistic effect of the compounds to be tested on the expression of STING pathway cytokine hIFN-β at the cellular level.
THP1 cells (Nanjing Cobioer) in the logarithmic phase were centrifuged, and resuspended in a cell culture solution to a density of 8×10^6 cells/ml. The cell suspension was inoculated into a 24-well cell culture plate (Corning) at 250 μL/well.
The mother liquor of the compound to be tested was diluted with a cell culture solution to obtain a 2× working concentration diluted solution (control compounds 1 and 2 were diluted at a 2-fold gradient: 200, 100, 50, 25, 12.5, 6.25, 3.125, 1.5625 and 0 μM; and compounds 4, 6, and 8 were diluted at a 3-fold gradient: 200, 66.67, 22.22, 7.41, 2.47, 0.82, 0.27, 0.091 and 0 μM). The 2× working concentration diluted solution of the compound was added into 24-well plate (250 μl of the culture solution containing 2% DMSO was added into the negative control well) at 250 μL/well. The culture plate was placed in a cell culture incubator, and incubated for 8 hours. After the cell incubation, the supernatant was collected by centrifugation at 300 g×5 min, and the hIFN-β content (pg/ml) in the cell culture supernatant was detected according to the operating instructions of the VeriKine Human […] ELISA kit from PBL (obtained by conversion of the […] absorbance-hIFN-β standard concentration standard curve and the OD450 nm absorbance value read by the microplate reader). […] was calculated through log(agonist) vs. response—Variable slope fitting by the Graphpad Prism software, and the experimental results are shown in Table 2.
In the table, EC50 refers to the concentration of a compound when the expression of hIFN-β generated by stimulation of the compound reaches half of Emax and Emax refers to the highest expression of hIFN-β generated by stimulation of the compound.

[3] = test system: STING and its downstream proteins TBK1 and IRF3 in THP-1 cells; experiment: Western blotting of phosphorylation of STING signal pathway proteins in human THP-1 cells; format: cell-based; conditions: 3 hours, protein blotting, FIGS. 1-5, result in words
Description: In this experiment, the changes in the phosphorylation levels of STING and its downstream proteins TBK1 (TANK-binding kinase 1) and IRF3 (interferon regulatory factor 3) were detected by protein blotting to evaluate the agonistic effect of the test compounds on the STING signal pathway at the cellular level.
The THP-1 cells in the logarithmic phase were centrifuged, and resuspended in a cell culture solution to a density of […]. The cell suspension was inoculated into a 12-well cell culture plate (Corning) at 0.5 mL/well. The compound to be tested was diluted with a cell culture solution to 2× working solution concentration (control compounds 1 and 2: 60 μM; compounds 1 and 3: 0.6 μM, 6 μM, and 60 μM; compounds 2, 4, 6 and 8: 6 μM, 20 μM, and 60 μM). 0.5 mL of the diluted solution of the compound was added into a 12-well plate (500 μl of the culture solution containing 2% DMSO was added into the negative control well), and the plate was incubated in a cell incubator for 3 hours. After the incubation, the cells were collected by centrifugation, lysed with 60 μL cell lysis buffer (CST) for 30 minutes, and centrifuged at 12,000 rpm for 15 minutes. The supernatant was collected to determine the protein concentration, and then an appropriate amount of 5× protein loading buffer was added. The mixture was heated at 95° C. for 10 minutes to prepare a protein electrophoresis sample. Finally protein blotting was performed to detect the phosphorylation level of the corresponding protein. The primary antibodies used in the protein blotting were purchased from CST: STING (D2P2F) rabbit mAb, Phospho-STING (Ser366) rabbit mAb, Phospho-IRF3 (Ser396) (D601M) rabbit mAb, IRF3 (D83B9) rabbit mAb, TBK1/NAK (D1B4) rabbit mAb, Phospho-TBK1/NAK (Ser172) (D52C2) XP® rabbit mAb, and GAPDH (D16H11) rabbit mAb; and the secondary antibody horseradish peroxidase-conjugated goat anti-rabbit IgG (H+L) was purchased from Zsgb-bio.

| EC50 [1] [nM] | EC50 [2] [nM] | Structure (SMILES) | Emax (OD620nm) [1] [OD620nm] | agonistic effect on the STING-mediated Interferon (IFN) signal pathway [1] | Emax [2] [pg/mL] | agonistic effect on the expression of hIFN-β [2] | agonistic effect on the phosphorylation levels of STING, TBK1 and IRF3 [3] |
| --- | --- | --- | --- | --- | --- | --- | --- |
| 35.5 | 5570 | COc1cc2sc(C(=O)N(C)CCC(=O)O)cc2cc1OCCCOc1cc2sc(C(=O)CCC(=O)O)cc2cc1OC [Compound 4, 4-(6-(3-((2-((2-carboxyethyl)(methyl)carbamoyl)-6-methoxybenzo[b]thiophen-5-yl)oxy)propoxy)-5-methoxybenzo[b]thiophen-2-yl)-4-oxobutanoic acid] | 1.97 | strong agonistic effects | 908.0 | strong agonistic effect | strong agonistic effects |
| 74.5 | 1820 | COc1cc2sc(C(=O)CCC(=O)O)cc2cc1OCCCOc1cc2sc(C(=O)N(C)CCC(=O)O)cc2cc1OC [Compound 6, 4-(5-(3-((2-((2-carboxyethyl)(methyl)carbamoyl)-5-methoxybenzo[b]thiophen-6-yl)oxy)propoxy)-6-methoxybenzo[b]thiophen-2-yl)-4-oxobutanoic acid] | 1.88 | strong agonistic effects | 829.6 | strong agonistic effect | strong agonistic effects |
| 55.3 | 1250 | COc1cc2sc(C(=O)CCC(=O)O)cc2cc1OCCCOc1cc2cc(C(=O)N(C)CCC(=O)O)sc2cc1OC [Compound 8, 4-(5-(3-((2-((2-carboxyethyl)(methyl)carbamoyl)-6-methoxybenzo[b]thiophen-5-yl)oxy)propoxy)-6-methoxybenzo[b]thiophen-2-yl)-4-oxobutanoic Acid] | 1.73 | strong agonistic effects | 917.1 | strong agonistic effect | strong agonistic effects |
